Data published in patent US20240024444A1, “Combined Preparation” (MEDRx Co., Ltd., priority 2020, published 2024).

Experiment: In vitro skin permeability test (Franz diffusion cell)
Assay type: in vitro ADME, rat (Slc: Wistar)
Experimental: In this test, a Franz diffusion cell (effective diffusion area: 1.0 cm^2, PermeGear, Hellertown, US) was used, and the abdominal skin (shaved before the skin is removed) of 5-week-old male rats (Slc: Wistar) was used.
The abdominal skin of rats was cut to about […] (23 mm round) and set in a receptor cell filled with 8.0 mL of the receptor solution (saline of 0.1% bovine serum albumin (BSA) (purchased from FUJIFILM Wako Pure Chemical Corporation)). The receptor solution was kept at 32° C. in a circulator water bath at a constant temperature. After 2, 4, 6, 8 and 24 hours, the receptor solution (0.2 mL) was collected and each of the collected solution was used as samples. After collecting the samples, the same amount of the receptor solution was added into the receptor cell to keep the volume of the receptor solution constant. […] The HPLC condition was as follows: Column: YMC Pack Pro C18 RS 5 μm, 4.6×150 mm; YMC CO., LTD., Mobile Phase: acetonitrile/0.1% trifluoroacetic acid (23/77, v/v) at 35° C., Flow Rate: 1.0 mL/min. The wavelength of the UV detector was set to 215 nm.

CCOCc1nc2c(N)nc3ccccc3c2n1CC(C)(C)O [R848, Resiquimod]
accumulative amount of the co-administered R848 for 24 hours (R848 co-administered with WT1 peptide): about 350 μg/cm^2
accumulative amount of the individually-administered R848 for 24 hours (R848 individually administered): about 1500 μg/cm^2
